Experimental data published in patent US20210045385A1, “PYRIDAZINONE-SUBSTITUTED KETOXIMES AS HERBICIDES” (FMC Corporation, priority 2018, published 2021).

Key:
Type in all cases: in vivo
[1] = tested on: sedge, umbrella (small-flower umbrella sedge, Cyperus difformis); experiment: Test B flooded paddy test, visual plant response rating; conditions: 250 g ai/ha, Flood, applied to paddy water, 2-leaf stage, evaluated after 13 to 15 days
How it was run: (§1)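 Seedlings at 2 leaves; compound into paddy water (3 cm flood, maintained); 13–15 d greenhouse; visual score relative to controls.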

[2] = tested on: ducksalad (Heteranhera limosa); experiment: as above; conditions: 250 g ai/ha, Flood, applied to paddy water, 2-leaf stage, evaluated after 13 to 15 days
How it was run: as §1

[3] = tested on: barnyardgrass (Echinochloa crus-galli); experiment: as above; conditions: 250 g ai/ha, Flood, applied to paddy water, 2-leaf stage, evaluated after 13 to 15 days
How it was run: as §1

[4] = tested on: rice (Oryza sativa); experiment: as above; conditions: 250 g ai/ha, Flood, applied to paddy water, 2-leaf stage, evaluated after 13 to 15 days
How it was run: as §1

[5] = tested on: Italian ryegrass (Lolium multiflorum); experiment: Test A preemergence, visual plant response rating; conditions: for Ryegrass, Italian plant response rating: 125 g ai/ha, preemergence, 0 to 100 scale, 0 no effect, 100 complete control; for Ryegrass, Italian plant response rating (0 to 100 scale): 500 g ai/ha Preemergence, approx. 10 days
How it was run: (§2)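 Greenhouse pot test in loam–sand soil mix: compound in a surfactant-containing non-phytotoxic solvent applied preemergence (directed soil spray) or postemergence (one- to two-leaf plants, 2–10 cm). Injury scored visually after ~10 days, 0–100.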

[6] = tested on: pigweed (Amaranthus retroflexus); experiment: Test A preemergence, visual plant response rating; conditions: for Pigweed plant response rating: 125 g ai/ha, preemergence, 0 to 100 scale, 0 no effect, 100 complete control; for Pigweed plant response rating (0 to 100 scale): 500 g ai/ha Preemergence, approx. 10 days
How it was run: as §2

[7] = tested on: foxtail, giant (giant foxtail, Setaria faberii); experiment: Test A preemergence, visual plant response rating; conditions: for Foxtail, Giant plant response rating: 125 g ai/ha, preemergence, 0 to 100 scale, 0 no effect, 100 complete control; for Foxtail, Giant plant response rating (0 to 100 scale): 500 g ai/ha Preemergence, approx. 10 days
How it was run: as §2

[8] = tested on: ragweed (common ragweed, Ambrosia elatior); experiment: Test A preemergence, visual plant response rating; conditions: for Ragweed plant response rating: 125 g ai/ha, preemergence, 0 to 100 scale, 0 no effect, 100 complete control; for Ragweed plant response rating (0 to 100 scale): 500 g ai/ha Preemergence, approx. 10 days
How it was run: as §2

[9] = tested on: kochia (Kochia scoparia); experiment: Test A preemergence, visual plant response rating; conditions: for Kochia plant response rating: 125 g ai/ha, preemergence, 0 to 100 scale, 0 no effect, 100 complete control; for Kochia plant response rating (0 to 100 scale): 500 g ai/ha Preemergence, approx. 10 days
How it was run: as §2

[10] = tested on: barnyardgrass (Echinochloa crus-galli); experiment: Test A preemergence, visual plant response rating; conditions: for Barnyardgrass plant response rating: 125 g ai/ha, preemergence, 0 to 100 scale, 0 no effect, 100 complete control; for Barnyardgrass plant response rating (0 to 100 scale): 500 g ai/ha Preemergence, approx. 10 days
How it was run: as §2

[11] = tested on: Italian ryegrass (Lolium multiflorum); experiment: Test A postemergence, visual plant response rating; conditions: for Ryegrass, Italian plant response rating (0 to 100 scale): 500 g ai/ha, postemergence, 0 is no effect, 100 is complete control; for Ryegrass, Italian plant response rating: Postemergence, 125 g ai/ha, 0 to 100 scale (0 no effect, 100 complete control)
How it was run: as §2

[12] = tested on: corn (Zea mays); experiment: Test A postemergence, visual plant response rating; conditions: for Corn plant response rating (0 to 100 scale): 500 g ai/ha, postemergence, 0 is no effect, 100 is complete control; for Corn plant response rating: Postemergence, 125 g ai/ha, 0 to 100 scale (0 no effect, 100 complete control)
How it was run: as §2

[13] = tested on: wheat (Triticum aestivum); experiment: Test A postemergence, visual plant response rating; conditions: for Wheat plant response rating (0 to 100 scale): 500 g ai/ha, postemergence, 0 is no effect, 100 is complete control; for Wheat plant response rating: Postemergence, 125 g ai/ha, 0 to 100 scale (0 no effect, 100 complete control)
How it was run: as §2

[14] = tested on: pigweed (Amaranthus retroflexus); experiment: Test A postemergence, visual plant response rating; conditions: for Pigweed plant response rating (0 to 100 scale): 500 g ai/ha, postemergence, 0 is no effect, 100 is complete control; for Pigweed plant response rating: Postemergence, 125 g ai/ha, 0 to 100 scale (0 no effect, 100 complete control)
How it was run: as §2

[15] = tested on: foxtail, giant (giant foxtail, Setaria faberii); experiment: Test A postemergence, visual plant response rating; conditions: for Foxtail, Giant plant response rating (0 to 100 scale): 500 g ai/ha, postemergence, 0 is no effect, 100 is complete control; for Foxtail, Giant plant response rating: Postemergence, 125 g ai/ha, 0 to 100 scale (0 no effect, 100 complete control)
How it was run: as §2

[16] = tested on: ragweed (common ragweed, Ambrosia elatior); experiment: Test A postemergence, visual plant response rating; conditions: for Ragweed plant response rating (0 to 100 scale): 500 g ai/ha, postemergence, 0 is no effect, 100 is complete control; for Ragweed plant response rating: Postemergence, 125 g ai/ha, 0 to 100 scale (0 no effect, 100 complete control)
How it was run: as §2

[17] = tested on: kochia (Kochia scoparia); experiment: Test A postemergence, visual plant response rating; conditions: for Kochia plant response rating (0 to 100 scale): 500 g ai/ha, postemergence, 0 is no effect, 100 is complete control; for Kochia plant response rating: Postemergence, 125 g ai/ha, 0 to 100 scale (0 no effect, 100 complete control)
How it was run: as §2

[18] = tested on: galium (catchweed bedstraw, Galium aparine); experiment: Test A postemergence, visual plant response rating; conditions: for Galium plant response rating (0 to 100 scale): 500 g ai/ha, postemergence, 0 is no effect, 100 is complete control; for Galium plant response rating: Postemergence, 125 g ai/ha, 0 to 100 scale (0 no effect, 100 complete control)
How it was run: as §2

[19] = tested on: blackgrass (Alopecurus myosuroides); experiment: Test A postemergence, visual plant response rating; conditions: for Blackgrass plant response rating (0 to 100 scale): 500 g ai/ha, postemergence, 0 is no effect, 100 is complete control; for Blackgrass plant response rating: Postemergence, 125 g ai/ha, 0 to 100 scale (0 no effect, 100 complete control)
How it was run: as §2

[20] = tested on: barnyardgrass (Echinochloa crus-galli); experiment: Test A postemergence, visual plant response rating; conditions: for Barnyardgrass plant response rating (0 to 100 scale): 500 g ai/ha, postemergence, 0 is no effect, 100 is complete control; for Barnyardgrass plant response rating: Postemergence, 125 g ai/ha, 0 to 100 scale (0 no effect, 100 complete control)
How it was run: as §2

| Structure (SMILES) | Plant response rating, Sedge, Umbrella (0 to 100 scale, 0 is no effect, 100 is complete control) [1] | Plant response rating, Ducksalad (0 to 100 scale, 0 is no effect, 100 is complete control) [2] | Plant response rating, Barnyardgrass (0 to 100 scale, 0 is no effect, 100 is complete control) [3] | Plant response rating, Rice (0 to 100 scale, 0 is no effect, 100 is complete control) [4] | Ryegrass, Italian plant response rating [5] | Ryegrass, Italian plant response rating (0 to 100 scale) [5] | Pigweed plant response rating [6] | Pigweed plant response rating (0 to 100 scale) [6] | Foxtail, Giant plant response rating [7] | Foxtail, Giant plant response rating (0 to 100 scale) [7] | Ragweed plant response rating [8] | Ragweed plant response rating (0 to 100 scale) [8] | Kochia plant response rating [9] | Kochia plant response rating (0 to 100 scale) [9] | Barnyardgrass plant response rating [10] | Barnyardgrass plant response rating (0 to 100 scale) [10] | Ryegrass, Italian plant response rating (0 to 100 scale) [11] | Ryegrass, Italian plant response rating [11] | Corn plant response rating (0 to 100 scale) [12] | Corn plant response rating [12] | other results |
| --- | --- | --- | --- | --- | --- | --- | --- | --- | --- | --- | --- | --- | --- | --- | --- | --- | --- | --- | --- | --- | --- |
| CO/N=C(/c1c(O)c(C)nn(C)c1=O)c1ccc(F)c2ccccc12 [Compound 75] | 0 | 0 | 0 | 0 | 100 | 100 | 60 | 90 | 70 | 100 | 80 | 100 | 10 | 90 | 30 | 90 | 100 | 90 | 20 | 10 | Wheat plant response rating (0 to 100 scale) [13]: 80; Wheat plant response rating [13]: 60; Pigweed plant response rating (0 to 100 scale) [14]: 90; Pigweed plant response rating [14]: 70; Foxtail, Giant plant response rating (0 to 100 scale) [15]: 80; Foxtail, Giant plant response rating [15]: 50; Ragweed plant response rating (0 to 100 scale) [16]: 100; Ragweed plant response rating [16]: 90; Kochia plant response rating (0 to 100 scale) [17]: 90; Kochia plant response rating [17]: 70; Galium plant response rating (0 to 100 scale) [18]: 100; Galium plant response rating [18]: 100; Blackgrass plant response rating (0 to 100 scale) [19]: 100; Blackgrass plant response rating [19]: 90; Barnyardgrass plant response rating (0 to 100 scale) [20]: 70; Barnyardgrass plant response rating [20]: 20 |
| CO/N=C(\c1ccccc1C#N)c1c(O)c(C)nn(C)c1=O [Compound 76] | 0 | 0 | 0 | 0 | 0 | 0 | 0 | 10 | 0 | 0 | 0 | 0 | 0 | 0 | 0 | 0 | 30 | 20 | 0 | 0 | Wheat plant response rating (0 to 100 scale) [13]: 0; Wheat plant response rating [13]: 0; Pigweed plant response rating (0 to 100 scale) [14]: 70; Pigweed plant response rating [14]: 40; Foxtail, Giant plant response rating (0 to 100 scale) [15]: 0; Foxtail, Giant plant response rating [15]: 0; Ragweed plant response rating (0 to 100 scale) [16]: 60; Ragweed plant response rating [16]: 10; Kochia plant response rating (0 to 100 scale) [17]: 0; Kochia plant response rating [17]: 0; Galium plant response rating (0 to 100 scale) [18]: 70; Galium plant response rating [18]: 40; Blackgrass plant response rating (0 to 100 scale) [19]: 0; Blackgrass plant response rating [19]: 0; Barnyardgrass plant response rating (0 to 100 scale) [20]: 20; Barnyardgrass plant response rating [20]: 20 |
